ChEMBL document CHEMBL1201862, “PubChem BioAssay data set” (2004)
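Following 48 hours of exposure in 96-well plates, responses at five concentrations were used to interpolate endpoints linearly. GI50 = concentration required for 50% inhibition of growth.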 Activity calls are given as the source filed them. Cut-off read from the data, not from the text of the source: active = GI50 up to about 1.1 µM and inactive = higher. Where a SMILES comes first, the peptide text is derived from it. The star is where a group is joined. Boc = CC(C)(C)OC(=O)*

Experiments:
Assay in all cases: NCI tumour cell line growth inhibition, 48 h
786-0 = test system: 786-0
A498 = test system: A498
A549 = test system: A549
ACHN = test system: ACHN
CAKI-1 = test system: CAKI-1
CCRF-CEM = test system: CCRF-CEM
COLO 205 = test system: COLO 205
DLD-1 = test system: DLD-1
DMS-114 = test system: DMS-114
DMS-273 = test system: DMS-273
EKVX = test system: EKVX
HCC 2998 = test system: HCC 2998
HCT-116 = test system: HCT-116
HCT-15 = test system: HCT-15
HL-60 = test system: HL-60
HOP-62 = test system: HOP-62
HOP-92 = test system: HOP-92
HT-29 = test system: HT-29
IGROV-1 = test system: IGROV-1
K562 = test system: K562
KM-20L2 = test system: KM-20L2
KM12 = test system: KM12
LOX IMVI = test system: LOX IMVI
LXFL 529 = test system: LXFL 529
M14 = test system: M14
M19-MEL = test system: M19-MEL
MOLT-4 = test system: MOLT-4
Malme-3M = test system: Malme-3M
NCI-H226 = test system: NCI-H226
NCI-H23 = test system: NCI-H23
NCI-H460 = test system: NCI-H460
NCI-H522 = test system: NCI-H522
OVCAR-3 = test system: OVCAR-3
OVCAR-4 = test system: OVCAR-4
OVCAR-5 = test system: OVCAR-5
OVCAR-8 = test system: OVCAR-8
RPMI-8226 = test system: RPMI-8226
RXF 393 = test system: RXF 393
RXF 631 = test system: RXF 631
SF-268 = test system: SF-268
SF-295 = test system: SF-295
SF-539 = test system: SF-539
SK-MEL-28 = test system: SK-MEL-28
SK-MEL-2 = test system: SK-MEL-2
SK-MEL-5 = test system: SK-MEL-5
SK-OV-3 = test system: SK-OV-3
SN12C = test system: SN12C
SNB-19 = test system: SNB-19
SNB-75 = test system: SNB-75
SNB-78 = test system: SNB-78
SW-620 = test system: SW-620
TK-10 = test system: TK-10
U-251 = test system: U-251
UACC-257 = test system: UACC-257
UACC-62 = test system: UACC-62
UO-31 = test system: UO-31
XF498 = test system: XF498
HOP-18 = test system: HOP-18
SR = test system: SR

Measured: GI50

O=C1C(=O)N(c2ccc(Cl)cc2)C(=O)C(=O)C1c1nc2ccccc2o1
> 100 µM: HCT-15
inactive: 786-0 > 100 µM | A498 > 100 µM | A549 > 100 µM | ACHN > 100 µM | CAKI-1 > 100 µM | CCRF-CEM > 100 µM | COLO 205 > 100 µM | DLD-1 > 100 µM | DMS-114 > 100 µM | DMS-273 > 100 µM | EKVX > 100 µM | HCC 2998 > 100 µM | HCT-116 > 100 µM | HL-60 > 100 µM | HOP-62 > 100 µM | HOP-92 > 100 µM | HT-29 > 100 µM | IGROV-1 > 100 µM | K562 > 100 µM | KM-20L2 > 100 µM | KM12 > 100 µM | LOX IMVI > 100 µM | LXFL 529 > 100 µM | M14 > 100 µM | M19-MEL > 100 µM | MOLT-4 > 100 µM | Malme-3M > 100 µM | NCI-H226 > 100 µM | NCI-H23 > 100 µM | NCI-H460 > 100 µM | NCI-H522 > 100 µM | OVCAR-3 > 100 µM | OVCAR-4 > 100 µM | OVCAR-5 > 100 µM | OVCAR-8 > 100 µM | RPMI-8226 > 100 µM | RXF 393 > 100 µM | RXF 631 > 100 µM | SF-268 > 100 µM | SF-295 > 100 µM | SF-539 > 100 µM | SK-MEL-28 > 100 µM | SK-MEL-2 > 100 µM | SK-MEL-5 > 100 µM | SK-OV-3 > 100 µM | SN12C > 100 µM | SNB-19 > 100 µM | SNB-75 > 100 µM | SNB-78 > 100 µM | SW-620 > 100 µM | TK-10 > 100 µM | U-251 > 100 µM | UACC-257 > 100 µM | UACC-62 > 100 µM | UO-31 > 100 µM | XF498 > 100 µM

COC(=O)N/N=C(\C)c1sc(-c2nc(C)c(/C(C)=N/NC(=O)OC)s2)nc1C
inactive: 786-0 > 100 µM | A498 > 100 µM | A549 > 100 µM | ACHN > 100 µM | CAKI-1 > 100 µM | CCRF-CEM 79.6 µM | COLO 205 > 100 µM | DLD-1 > 100 µM | DMS-114 42.2 µM | DMS-273 95.9 µM | EKVX > 100 µM | HCC 2998 > 100 µM | HCT-116 > 100 µM | HL-60 39.1 µM | HOP-18 > 100 µM | HOP-62 > 100 µM | HOP-92 > 100 µM | HT-29 > 100 µM | IGROV-1 > 100 µM | K562 > 100 µM | KM-20L2 > 100 µM | KM12 > 100 µM | LOX IMVI 64.1 µM | LXFL 529 > 100 µM | M14 > 100 µM | M19-MEL > 100 µM | MOLT-4 > 100 µM | Malme-3M > 100 µM | NCI-H226 > 100 µM | NCI-H23 > 100 µM | NCI-H460 > 100 µM | NCI-H522 41.7 µM | OVCAR-3 > 100 µM | OVCAR-4 > 100 µM | OVCAR-5 > 100 µM | OVCAR-8 > 100 µM | RPMI-8226 > 100 µM | RXF 393 > 100 µM | RXF 631 > 100 µM | SF-268 > 100 µM | SF-295 > 100 µM | SF-539 > 100 µM | SK-MEL-28 > 100 µM | SK-MEL-2 > 100 µM | SK-MEL-5 > 100 µM | SK-OV-3 > 100 µM | SN12C > 100 µM | SNB-19 > 100 µM | SNB-75 > 100 µM | SNB-78 62.7 µM | SR 20.7 µM | TK-10 > 100 µM | U-251 > 100 µM | UACC-257 > 100 µM | UACC-62 > 100 µM | UO-31 > 100 µM
> 100 µM: HCT-15

CN/N=C(/c1nc2ccc([N+](=O)[O-])cc2nc1O)C(O)c1ccc(C(O)/C(=N\NC)c2nc3ccc([N+](=O)[O-])cc3nc2O)cc1 (stereo not drawn)
inactive: 786-0 > 100 µM | A498 > 100 µM | A549 64.6 µM | ACHN 46.9 µM | CAKI-1 > 100 µM | CCRF-CEM 19.8 µM | COLO 205 64.9 µM | DLD-1 35.6 µM | DMS-114 7.16 µM | DMS-273 31.4 µM | EKVX > 100 µM | HCC 2998 23.9 µM | HCT-116 > 100 µM | HL-60 4.37 µM | HOP-62 42.2 µM | HOP-92 > 100 µM | HT-29 > 100 µM | IGROV-1 > 100 µM | K562 32.5 µM | KM-20L2 63 µM | KM12 > 100 µM | LOX IMVI > 100 µM | LXFL 529 20.7 µM | M14 52.4 µM | M19-MEL > 100 µM | MOLT-4 48.2 µM | Malme-3M > 100 µM | NCI-H226 > 100 µM | NCI-H23 > 100 µM | NCI-H460 42.6 µM | OVCAR-3 > 100 µM | OVCAR-5 > 100 µM | OVCAR-8 > 100 µM | RPMI-8226 68.1 µM | RXF 393 > 100 µM | RXF 631 21.3 µM | SF-268 > 100 µM | SF-295 66.4 µM | SF-539 42.6 µM | SK-MEL-28 > 100 µM | SK-MEL-2 48 µM | SK-MEL-5 > 100 µM | SK-OV-3 > 100 µM | SNB-19 > 100 µM | SNB-75 > 100 µM | SNB-78 > 100 µM | SW-620 82.8 µM | TK-10 > 100 µM | U-251 > 100 µM | UACC-257 52.6 µM | UACC-62 44.9 µM | UO-31 55 µM
29.5 µM: HCT-15

Cn1c2cccc3nnc4cccc(c4c32)n1C
inactive: 786-0 > 100 µM | A498 > 100 µM | A549 > 100 µM | ACHN > 100 µM | CAKI-1 21.2 µM | CCRF-CEM > 100 µM | COLO 205 > 100 µM | DLD-1 > 100 µM | DMS-114 > 100 µM | DMS-273 > 100 µM | EKVX > 100 µM | HCC 2998 > 100 µM | HCT-116 > 100 µM | HL-60 > 100 µM | HOP-92 > 100 µM | HT-29 > 100 µM | IGROV-1 > 100 µM | K562 > 100 µM | KM-20L2 > 100 µM | KM12 > 100 µM | LOX IMVI > 100 µM | LXFL 529 > 100 µM | M14 > 100 µM | M19-MEL > 100 µM | MOLT-4 > 100 µM | Malme-3M > 100 µM | NCI-H226 45.8 µM | NCI-H460 > 100 µM | OVCAR-3 > 100 µM | OVCAR-4 > 100 µM | OVCAR-5 > 100 µM | OVCAR-8 > 100 µM | RPMI-8226 > 100 µM | RXF 393 > 100 µM | RXF 631 > 100 µM | SF-268 > 100 µM | SF-295 > 100 µM | SF-539 > 100 µM | SK-MEL-28 > 100 µM | SK-MEL-2 > 100 µM | SK-MEL-5 > 100 µM | SN12C > 100 µM | SNB-19 > 100 µM | SNB-78 > 100 µM | SW-620 > 100 µM | U-251 > 100 µM | UACC-257 > 100 µM | UACC-62 > 100 µM | UO-31 > 100 µM | XF498 > 100 µM
> 100 µM: HCT-15

CSCCC(NC(=O)C(CC(C)C)NC(=O)C1CCCN1C(=O)C(Cc1ccccc1)NC(=O)C(Cc1ccccc1)NC(=O)C(CCC(=O)O)NC(=O)OC(C)(C)C)C(N)=O (stereo not drawn) (Boc-EFFPLM-NH2; configuration not given here)
inactive: 786-0 > 100 µM | A498 > 100 µM | CAKI-1 > 100 µM | CCRF-CEM > 100 µM | COLO 205 > 100 µM | DLD-1 > 100 µM | DMS-114 > 100 µM | DMS-273 > 100 µM | HCC 2998 > 100 µM | HCT-116 > 100 µM | HL-60 > 100 µM | HOP-62 > 100 µM | HOP-92 > 100 µM | IGROV-1 > 100 µM | K562 > 100 µM | LOX IMVI > 100 µM | LXFL 529 > 100 µM | M14 > 100 µM | M19-MEL > 100 µM | MOLT-4 > 100 µM | Malme-3M > 100 µM | NCI-H226 > 100 µM | NCI-H23 > 100 µM | NCI-H460 > 100 µM | NCI-H522 > 100 µM | OVCAR-4 > 100 µM | RPMI-8226 > 100 µM | RXF 631 > 100 µM | SF-268 > 100 µM | SF-539 > 100 µM | SK-MEL-28 > 100 µM | SK-MEL-2 > 100 µM | SK-OV-3 > 100 µM | SN12C > 100 µM | SNB-75 > 100 µM | SNB-78 > 100 µM | SR > 100 µM | UACC-62 > 100 µM | UO-31 > 100 µM | XF498 > 100 µM
